One assay concerns the target T1, hGCGR (Homo sapiens, UniProt P47871).
T1 construct: expressed in transfected cells
Put plainly: Functional cAMP formation (HTRF) in HEK-293 clonal cells expressing hGCGR, 0.1% bovine casein, without or with 1.0% human serum albumin. It counts as cell-based. The note with it: read-out: hGCGR EC50, nM (SEM, n). The procedure, abridged: (§1)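 Readings of the HTRF 665/620 nm ratio, which falls as cAMP rises, were converted to nM cAMP using a standard curve after 30 min peptide exposure at 37° C.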
(cAMP levels reflect the balance of adenylyl cyclase and phosphodiesterase activity.)

The target of the next assay is T2, hGIPR (Homo sapiens, UniProt P48546).
T2 construct: expressed in transfected cells
T2 sequence (P48546 22-466): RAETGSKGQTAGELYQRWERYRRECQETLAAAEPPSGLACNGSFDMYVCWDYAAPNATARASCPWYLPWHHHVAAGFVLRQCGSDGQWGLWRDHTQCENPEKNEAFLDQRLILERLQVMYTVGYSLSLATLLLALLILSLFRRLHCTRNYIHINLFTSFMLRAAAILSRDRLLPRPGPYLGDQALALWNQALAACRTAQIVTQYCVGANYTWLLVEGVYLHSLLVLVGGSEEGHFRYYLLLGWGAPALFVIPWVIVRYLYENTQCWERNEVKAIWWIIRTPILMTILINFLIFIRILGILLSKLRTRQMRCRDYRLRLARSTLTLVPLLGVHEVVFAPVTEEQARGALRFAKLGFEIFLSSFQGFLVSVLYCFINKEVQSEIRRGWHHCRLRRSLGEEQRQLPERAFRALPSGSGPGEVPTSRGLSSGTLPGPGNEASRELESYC
Put plainly: Functional cAMP formation (HTRF) in HEK-293 clonal cells expressing hGIPR, 0.1% bovine casein, without or with 1.0% human serum albumin. It counts as cell-based. To be noted: for EC50: read-out: hGIPR EC50, nM (SEM, n); for Emax: read-out: hGIPR Emax, % ± SEM. The procedure, abridged:
as §1

Assay [1] has as its target T3, human GIP receptor (hGIPR) (Homo sapiens, UniProt P48546).
T3 construct: expressed in transfected cells; crude membranes
T3 sequence (P48546 22-466): T2 sequence (P48546 22-466)
Put plainly: [125I]-GIP binding, SPA with membranes of CHO cells expressing hGIPR. To be noted: human GIPR; geometric mean (SEM, n); read-out: Binding Affinity Ki, nM (SEM, n) hGIPR. How it is done:
Two methods are used for the preparation of crude cell membranes.
Method 1: Frozen cell pellets are lysed on ice in hypotonic buffer containing 50 mM Tris HCl, pH 7.5, and Roche Complete™ Protease Inhibitors with EDTA. […] The homogenate is centrifuged at 4° C. at 1100 × g for 10 minutes. The supernatant is collected and stored on ice while the pellets are resuspended in homogenization buffer and rehomogenized as described above. The homogenate is centrifuged at 1100 × g for 10 minutes. The second supernatant is combined with the first supernatant and centrifuged at 35000 × g for 1 hour at 4° C. The resulting membrane pellet is resuspended in homogenization buffer containing protease inhibitors at approximately 1 to 3 mg/mL, quick frozen in liquid nitrogen and stored as aliquots in a -80° C. freezer until use.
The homogenate is centrifuged at 4° C. at 1800 × g for 15 minutes. The supernatant is collected and stored on ice while the pellets are resuspended in homogenization buffer (without DNAse I) and rehomogenized as described above. The homogenate is centrifuged at 1800 × g for 15 minutes. The second supernatant is combined with the first supernatant and centrifuged an additional time at 1800 × g for 15 minutes. The overall supernatant is then centrifuged at 25000 × g for 30 minutes at 4° C. The resulting membrane pellet is resuspended in homogenization buffer (without DNAse I) containing protease inhibitors at approximately 1 to 3 mg/mL and stored as aliquots in a -80° C. freezer until use.
The binding buffer contains 25 mM HEPES, pH 7.4, 2.5 mM CaCl2, 1 mM MgCl2, 0.1% (w/v) bacitracin, 0.003% (w/v) TWEEN®-20, and Roche Complete™ Protease Inhibitors without EDTA. Peptides and GIP are thawed and 3 fold serially diluted in 100% DMSO (10 point concentration response curves). […] Plates are sealed and mixed on a plate shaker (setting 6) for 1 minute and read with a PerkinElmer Trilux MicroBeta® scintillation counter after 2.5 to 12 hours of incubation/settling time at room temperature.
Raw CPM data for concentration curves of peptides, Gcg, GLP-1, or GIP are converted to percent inhibition by subtracting nonspecific binding (binding in the presence of excess unlabeled Gcg, GLP-1, or GIP, respectively) from the individual CPM values and dividing by the total binding signal, also corrected by subtracting nonspecific binding. Data are analyzed using four-parameter (curve maximum, curve minimum, IC50, Hill slope) nonlinear regression routines (Genedata Screener, version 12.0.4, Genedata AG, Basal, Switzerland). […] Values for Ki are reported as the geometric mean, with error expressed as the standard error of the mean (SEM) and n is equal to the number of independent replicates (determined in assays performed on different days). Geometric Means are calculated as follows: […]
The Ki Ratio (Ki for native control peptide/Ki for test compound) at each receptor and each species is calculated. The Ki Ratio is a rapid indication of the apparent affinity of a peptide compared to the native control peptide.
n=⅟x means that only one value out of the total number of replicates (x) is used to express the mean. SEM is only calculated when n=2 or greater non-qualified results exist. Means are expressed as GeoMetric means with the standard error of the mean (SEM) and the number of replicates (n) indicated in parenthesis.

The next assay concerns the target hGLP-1R (Homo sapiens, UniProt P43220). The assay can be described thus: Functional cAMP formation (HTRF) in HEK-293 clonal cells expressing hGLP-1R, 0.1% bovine casein, without or with 1.0% human serum albumin. It counts as cell-based. Further details: expressed in transfected cells. To be noted: 37° C.; for EC50: read-out: hGLP-1R EC50, nM (SEM, n); for Emax: HEK293, cAMP, percent of maximal response to GLP-1(7-36)NH2, read-out: hGLP-1R Emax, % ± SEM. The procedure, abridged: as §1

Where [2] appears, read: 0.1% bovine casein and 1.0% human serum albumin, 37° C., geometric mean.
The mark [3] stands for this setting: cAMP, incubated at 37° C., 0.1% bovine casein (no human serum albumin), geometric mean.
Setting [4] is: cAMP, 37° C., 0.1% bovine casein (no human serum albumin), geometric mean.
[5] abbreviates: cAMP, 37° C., 0.1% bovine casein and 1.0% human serum albumin, geometric mean (SEM, n).
Where [6] appears, read: HEK293, cAMP, 37° C., 0.1% bovine casein and 1.0% human serum albumin, percent of maximal response to GIP(1-42)NH2.
Setting [7] is: HEK293, cAMP, 37° C., 0.1% bovine casein, percent of maximal response to GIP(1-42)NH2, arithmetic mean.
[8] abbreviates: 0.1% bovine casein and 1.0% human serum albumin.
The mark [9] stands for this setting: cAMP, 0.1% bovine casein (no human serum albumin), geometric mean.

These results are taken from US20230265151A1, “GIP/GLP1 CO-AGONIST COMPOUNDS” (priority 2020, published 2023).

Like-named read-outs stand apart in the source and are kept apart here. Bounds are passed on as bounds.

T1 sequence (P47871 26-477): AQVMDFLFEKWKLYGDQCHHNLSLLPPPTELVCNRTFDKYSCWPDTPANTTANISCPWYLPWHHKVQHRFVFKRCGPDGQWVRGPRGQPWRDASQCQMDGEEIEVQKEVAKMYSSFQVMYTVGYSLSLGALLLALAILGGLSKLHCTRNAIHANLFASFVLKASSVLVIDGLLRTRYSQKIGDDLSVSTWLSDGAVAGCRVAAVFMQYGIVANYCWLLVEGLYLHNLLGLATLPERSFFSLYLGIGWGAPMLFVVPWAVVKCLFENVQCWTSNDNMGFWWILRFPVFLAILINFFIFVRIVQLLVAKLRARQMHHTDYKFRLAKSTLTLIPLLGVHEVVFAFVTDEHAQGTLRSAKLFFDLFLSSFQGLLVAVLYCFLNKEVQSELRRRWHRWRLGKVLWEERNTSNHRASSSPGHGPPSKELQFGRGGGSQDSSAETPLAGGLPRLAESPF
hGLP-1R, sequence (P43220 24-463): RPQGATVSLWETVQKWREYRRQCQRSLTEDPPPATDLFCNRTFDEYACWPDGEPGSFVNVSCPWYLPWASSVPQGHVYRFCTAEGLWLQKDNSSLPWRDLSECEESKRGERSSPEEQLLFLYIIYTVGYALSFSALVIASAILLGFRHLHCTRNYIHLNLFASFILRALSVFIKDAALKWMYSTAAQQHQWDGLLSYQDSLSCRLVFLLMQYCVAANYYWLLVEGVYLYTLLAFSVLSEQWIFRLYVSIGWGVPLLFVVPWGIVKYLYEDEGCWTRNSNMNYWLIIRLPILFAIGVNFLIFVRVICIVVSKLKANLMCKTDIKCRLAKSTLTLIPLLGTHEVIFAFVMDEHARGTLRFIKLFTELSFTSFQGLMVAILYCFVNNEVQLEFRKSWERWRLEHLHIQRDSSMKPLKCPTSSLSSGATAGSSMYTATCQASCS

What is called EC50 is the concentration giving half of the maximal effect. A word on the Emax: it is the size of the effect at its maximum, as opposed to the concentration needed. One may read the Ki as the equilibrium dissociation constant of an inhibitor or competing ligand from its target. Take `CC[C@H](C)[C@H](NC(=O)[C@H](CC(C)C)NC(=O)[C@](C)(Cc1ccc(O)cc1)NC(=O)[C@@H](CCC(=O)O)NC(=O)[C@@H](NC(=O)[C@H](Cc1ccccc1)NC(=O)[C@H](CCC(=O)O)NC(=O)C(C)(C)NC(=O)[C@H](CCC(N)=O)NC(=O)[C@H](C)NC(=O)[C@H](CCCCNC(=O)[C@@H](N)CCCCNC(=O)COCCOCCNC(=O)CC[C@H](NC(=O)CCCCCCCCCCCCC(=O)O)C(=O)O)NC(=O)[C@H](CCCN)NC(=O)[C@H](CC(=O)O)NC(=O)[C@H](CC(C)C)NC(=O)[C@](C)(CC(C)C)NC(=O)[C@@H](NC(=O)[C@H](CO)NC(=O)[C@H](Cc1ccncc1)NC(=O)[C@H](CC(=O)O)NC(=O)[C@H](CO)NC(=O)[C@@H](NC(=O)[C@](C)(Cc1ccccc1F)NC(=O)[C@@H](NC(=O)CNC(=O)[C@H](CCC(=O)O)NC(=O)C(C)(C)NC(=O)[C@@H](N)Cc1ccc(O)cc1)[C@@H](C)O)[C@@H](C)O)[C@@H](C)CC)[C@@H](C)CC)C(=O)N[C@@H](CCC(=O)O)C(=O)NCC(=O)NCC(=O)N[C@@H](CCCCNC(=O)[C@@H](N)CCCCNC(=O)COCCOCCNC(=O)CC[C@H](NC(=O)CCCCCCCCCCCCC(=O)O)C(=O)O)C(=O)N[C@@H](CO)C(=O)N[C@@H](CO)C(=O)NCC(=O)N[C@@H](C)C(=O)N1CCC[C@H]1C(=O)N1CCC[C@H]1C(=O)N1CCC[C@H]1C(=O)N[C@@H](CO)C(N)=O` [Example 36]: the 50% effective concentration (EC50) was above 9950 nM on hGCGR (setting [2]); above 9950 nM at hGCGR (setting [3]); 0.408 nM at hGIPR (setting [2]); 0.0185 nM at hGIPR (setting [3]); 10.9 nM at hGLP-1R (0.1% bovine casein and 1.0% human serum albumin, geometric mean). The maximum response (Emax) was 91.4 ± 0.667% on hGIPR (HEK293, 0.1% bovine casein and 1.0% human serum albumin, 37° C., percent of maximal response to GIP(1-42)NH2); 95.4 ± 2.02% on hGIPR (HEK293, percent of maximal response to GIP(1-42)NH2, 37° C., 0.1% bovine casein, arithmetic mean). The Ki in assay [1] worked out at 0.103 nM.

As for `CCCCCCCCCCCC(=O)N[C@@H](CCC(=O)NCCOCCOCC(=O)NCCOCCOCC(=O)NCCCC[C@H](NC(=O)[C@H](CO)NC(=O)[C@@H]1CCCN1C(=O)[C@@H]1CCCN1C(=O)[C@@H]1CCCN1C(=O)[C@H](C)NC(=O)CNC(=O)[C@H](CO)NC(=O)[C@H](CO)NC(=O)[C@@H]1CCCN1C(=O)CNC(=O)CNC(=O)[C@H](CCC(=O)O)NC(=O)[C@@H](NC(=O)[C@H](CC(C)C)NC(=O)[C@](C)(Cc1ccc(O)cc1)NC(=O)[C@@H](CCC(=O)O)NC(=O)[C@@H](NC(=O)[C@H](Cc1ccccc1)NC(=O)[C@H](CCCN)NC(=O)C(C)(C)NC(=O)[C@H](CCC(N)=O)NC(=O)[C@H](C)NC(=O)[C@H](CCCCNC(=O)COCCOCCNC(=O)COCCOCCNC(=O)CC[C@H](NC(=O)CCCCCCCCCCC)C(=O)O)NC(=O)[C@H](CCCN)NC(=O)[C@H](CC(=O)O)NC(=O)[C@H](CC(C)C)NC(=O)[C@](C)(CC(C)C)NC(=O)[C@@H](NC(=O)C(C)(C)NC(=O)[C@H](Cc1ccncc1)NC(=O)[C@H](CC(=O)O)NC(=O)[C@H](CO)NC(=O)[C@@H](NC(=O)[C@](C)(Cc1ccccc1F)NC(=O)[C@@H](NC(=O)CNC(=O)[C@H](CCC(=O)O)NC(=O)C(C)(C)NC(=O)[C@@H](N)Cc1ccc(O)cc1)[C@@H](C)O)[C@@H](C)O)[C@@H](C)CC)[C@@H](C)CC)[C@@H](C)CC)C(N)=O)C(=O)O` [Example 418], the concentration giving a half-maximal response (EC50) at hGCGR (setting [4]) was above 9950 nM; at hGCGR (setting [5]), above 9950 nM; on hGIPR (setting [4]), 0.00599 nM; at hGIPR (setting [5]), 0.126 nM; on hGLP-1R (setting [9]), 0.0603 nM; at hGLP-1R (cAMP, 0.1% bovine casein and 1.0% human serum albumin, geometric mean (SEM, n)) it was 1.72 nM. In addition, the Emax on hGIPR (setting [6]) is 87.2%; on hGIPR (setting [7]) it was 91%; on hGLP-1R (setting [8]), 98.8%. In addition, in assay [1], the inhibition constant (Ki) came out at 0.0174 nM.

Regarding `CCCCCCCCCCCC(=O)N[C@@H](CCC(=O)NCCOCCOCC(=O)NCCOCCOCC(=O)NCCOCCOCC(=O)NCCCC[C@H](NC(=O)[C@H](CCCN)NC(=O)[C@H](CC(=O)O)NC(=O)[C@H](CC(C)C)NC(=O)[C@](C)(CC(C)C)NC(=O)[C@@H](NC(=O)C(C)(C)NC(=O)[C@H](CCCCNC(=O)COCCOCCNC(=O)COCCOCCNC(=O)COCCOCCNC(=O)CC[C@H](NC(=O)CCCCCCCCCCC)C(=O)O)NC(=O)[C@H](CC(=O)O)NC(=O)[C@H](CO)NC(=O)[C@@H](NC(=O)[C@](C)(Cc1ccccc1F)NC(=O)[C@@H](NC(=O)CNC(=O)[C@H](CCC(=O)O)NC(=O)C(C)(C)NC(=O)[C@@H](N)Cc1ccc(O)cc1)[C@@H](C)O)[C@@H](C)O)[C@@H](C)CC)C(=O)N[C@@H](C)C(=O)N[C@@H](CCC(N)=O)C(=O)NC(C)(C)C(=O)N[C@@H](CCC(=O)O)C(=O)N[C@@H](Cc1ccccc1)C(=O)N[C@H](C(=O)N[C@H](CCC(=O)O)C(=O)N[C@@](C)(Cc1ccc(O)cc1)C(=O)N[C@@H](CC(C)C)C(=O)N[C@H](C(=O)N[C@@H](CCC(=O)O)C(=O)NCC(=O)NCC(=O)N1CCC[C@H]1C(=O)N[C@@H](CO)C(=O)N[C@@H](CO)C(=O)NCC(=O)N[C@@H](C)C(=O)N1CCC[C@H]1C(=O)N1CCC[C@H]1C(=O)N1CCC[C@H]1C(=O)N[C@@H](CO)C(N)=O)[C@@H](C)CC)[C@@H](C)CC)C(=O)O` [Example 421], the 50% effective concentration (EC50) on hGCGR (setting [4]) is above 9950 nM; at hGCGR (setting [5]), above 9950 nM; at hGIPR (setting [4]), 0.00618 nM; at hGLP-1R (setting [9]), 0.057 nM. The results for the Emax at hGIPR (setting [6]), on hGIPR (setting [7]) and at hGLP-1R (setting [8]) were 98%, 100% and 105%, respectively. Moreover, the Ki in assay [1] stood at 0.0245 nM.
